Results from patent publication US9783853B2, “Recurrent gene fusions in cancer” (THE REGENTS OF THE UNIVERSITY OF MICHIGAN, priority 2013, dated 2017).

Columns and labels:
[1] = test system: SW780 cells (FGFR3-BAIAP2L1 fusion); assay: Cell proliferation assay (WST-1), FGFR inhibition; type: cell-based; settings: 0, 5, 25, 100 nM
Description: For validation of fusion transcripts, quantitative RT-PCR assays were performed. Total cDNAs of index cases and negative control samples were synthesized using SuperScript III System according to the manufacturer's instructions (Invitrogen). Quantitative RT-PCR was performed using fusion-specific primers (Table 15) with SYBR Green Master Mix (Applied Biosystems) on the StepOne Real-Time PCR System (Applied Biosystems). The PCR products were further analyzed by agarose gel electrophoresis. Relative mRNA levels of the fusion transcripts were normalized to the expression of the housekeeping gene GAPDH. Inhibition of FGFR receptors and cell proliferation assay Bladder cancer cells SW780, J82, and HT1197 were seeded into 96-well plates in triplicate and allowed to attach before drug treatment. The FGFR inhibitor PD173074 (Selleck Chemicals) was added to the cultures at concentrations of 0, 5, 25, and 100 nM. Relative cell numbers were measured by WST-1 assays at indicated time points following the manufacturer's instructions (Roche).

[2] = test system: SW780 xenografts; assay: Mouse xenograft model, tumor growth; type: in vivo, C.B17/SCID mice; settings: increasing doses, intraperitoneal
Description: (§1) Five week-old male C.B17/SCID mice were procured from a breeding colony at University of Michigan, maintained by Dr. Kenneth Pienta. Mice were anesthetized using a cocktail of xylazine ([…], intraperitoneal) and ketamine (10 mg/kg, intraperitoneal) for chemical restraint. Bladder cancer cells SW780 (2 million cells for each implantation site) or J82 (5 million cells for each implantation site) were resuspended in 100 μl of 1×PBS with 20% Matrigel (BD Biosciences) and were implanted subcutaneously into flank region on both sides. Eight mice were included in each experimental group. All tumors were staged for two weeks (SW780 cells) and three weeks (J82 cells) before starting the drug treatment. Xenografted mice with palpable tumors were treated with a FGFR inhibitor PD173074 (Selleck Chemicals) dissolved in 5% ethanol in corn oil (intraperitoneal). Mice in control group received 5% ethanol in corn oil as vehicle control. Tumor growth was recorded weekly by using digital calipers and tumor volumes were calculated using the formula (π/6) (L×W2), where L=length of tumor and W=width. Any decrease in the body weight of mice was monitored bi-weekly during the course of the study. All experimental procedures involving mice were approved by the University Committee on Use and Care of Animals (UCUCA) at the University of Michigan and conform to their relevant regulatory standards.

[3] = test system: J82 xenografts; assay: Mouse xenograft model, tumor growth; type: in vivo, C.B17/SCID mice; settings: increasing doses, intraperitoneal
Description: as §1

CCN(CC)CCCCNc1ncc2cc(-c3cc(OC)cc(OC)c3)c(NC(=O)NC(C)(C)C)nc2n1 [PD173074] was tested, and the “sensitivity of cell line to FGFR inhibitor (cell proliferation)” value [1] was “sensitive to nanomolar concentrations”, the “sensitivity of cell line to FGFR inhibitor (cell proliferation)” value ([1]; listed as PD 173074) was “enhanced sensitivity” and the xenograft tumor growth [2] was “decreased tumor growth”. The xenograft tumor growth [3] was “did not”.
